From PubChem BioAssay AID1964 (Broad Institute, 2009) come the findings set out here.

Inconclusive results are not listed. The source made the active and inactive calls. No rule for the calls is given here.

As a reminder, the IC50 is the concentration that gives 50% inhibition.

The assay deals with RNA-binding protein pos-1 (Caenorhabditis elegans) (UniProt G5EF15). Briefly: inhibitors of POS-1/mex-3 RNA binding, dose response, biochemical, fluorescence polarization (AID 1964). The conditions noted are these: POS-1/mex-3 RNA fluorescence polarization. (In general: Polarisation of emitted light reports the rotation of a fluorescent probe.)
Sequence of RNA-binding protein pos-1 (Caenorhabditis elegans) (G5EF15 whole entry, looked up): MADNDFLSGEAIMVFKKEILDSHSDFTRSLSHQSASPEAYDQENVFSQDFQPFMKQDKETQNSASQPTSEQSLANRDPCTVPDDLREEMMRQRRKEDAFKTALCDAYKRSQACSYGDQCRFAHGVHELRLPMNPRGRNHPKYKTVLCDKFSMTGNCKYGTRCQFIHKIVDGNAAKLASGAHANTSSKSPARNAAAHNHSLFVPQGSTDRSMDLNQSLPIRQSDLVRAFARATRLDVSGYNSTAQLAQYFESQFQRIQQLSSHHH
For `Cc1cc(/C=C2/C(=O)NC(=O)N(Cc3ccco3)C2=O)c(C)n1-c1ccc(C(=O)O)cc1`, the IC50 was > 30 µM (inactive).
Next, `C[C@H]1c2cccc(O)c2C(O)=C2C(=O)[C@]3(O)C(O)=C(C(N)=O)C(=O)[C@@H](N(C)C)C3[C@@H](O)C21` (stereo not given in full): > 30 µM (inactive); `C[C@H]1c2cccc(O)c2C(O)=C2C(=O)[C@]3(O)C(O)=C(C(N)=O)C(=O)[C@@H](N(C)C)[C@@H]3[C@@H](O)[C@@H]21`: > 30 µM (inactive); `CCC(C)/C=C(C)/C=C/C1=CC2=C(Cl)C(=O)C(C)(OC(C)=O)C(=O)C2=CO1` (stereo not given): > 30 µM (inactive).
With `Cc1cc(/C=C2\C(=O)NC(=O)N(Cc3ccco3)C2=O)c(C)n1-c1ccc(C(=O)O)cc1` the figure was > 30 µM (inactive).
